Drawing on patent US20140135270A1, “MACROCYCLIC COMPOUNDS FOR INHIBITION OF INHIBITORS OF APOPTOSIS” (Ensemble Therapeutics Corp., priority 2012, published 2014), this text covers IC50 for 16 compounds.

For one assay, the target named is T1, His-BIR3 (241-356, XIAP) (Homo sapiens, UniProt P98170).
T1 construct: additions of His-BIR3 (241-356, XIAP), fluorescein labeled SMAC peptide
The assay can be described thus: XIAP-BIR3/SMAC Homogeneous Time Resolved Fluorescence (HTRF) Assay. Format: binding. The following applies: fluorescein labeled SMAC peptide. On the technique in general: Time-resolved FRET reads energy transfer from a long-lived donor to a nearby acceptor.

The target in assay [1] is T2, His-BIR2-3 (125-356, C202A/C213G, XIAP) (Homo sapiens, UniProt P98170, C202A/C213G).
T2 construct: additions of His-BIR2-3 (125-356, C202A/C213G, XIAP), fluorescein labeled dimeric SMAC peptide
T2 sequence (P98170 125-356 C202A/C213G): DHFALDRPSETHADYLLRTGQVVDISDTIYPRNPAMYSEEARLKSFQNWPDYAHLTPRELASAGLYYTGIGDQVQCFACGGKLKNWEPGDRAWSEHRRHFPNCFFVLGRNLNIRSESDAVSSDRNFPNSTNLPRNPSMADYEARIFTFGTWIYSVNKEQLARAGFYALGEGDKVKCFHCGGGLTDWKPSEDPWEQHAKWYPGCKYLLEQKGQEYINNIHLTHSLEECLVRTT
The experiment in a line: XIAP-BIR2-3 Dimeric SMAC Peptide Homogeneous Time Resolved Fluorescence (HTRF) Assay. It counts as binding. The following applies: fluorescein labeled dimeric SMAC peptide.

T1 sequence (P98170 241-356): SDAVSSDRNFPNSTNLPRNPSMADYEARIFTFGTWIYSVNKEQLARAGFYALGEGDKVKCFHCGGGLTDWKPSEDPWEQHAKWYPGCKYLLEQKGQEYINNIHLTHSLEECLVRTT

For the compound `CNC(C)C(=O)NC(C(=O)N1CC2CC1C(=O)NC(Cc1ccc3ccccc3c1)C(=O)NC(C(=O)O)Cc1ccc(cc1)OCC=CCOC1CC(C(=O)NC(Cc3ccc4ccccc4c3)C(=O)NC(C(=O)O)Cc3ccc(cc3)CC(=O)N2)N(C(=O)C(NC(=O)C(C)NC)C(C)(C)C)C1)C(C)(C)C` (centres unmarked) [Example 30], the IC50 at His-BIR3 (241-356, XIAP) stood at 7.5 nM; in assay [1] it was 1.1 nM.
For `CN[C@@H](C)C(=O)N[C@H](C(=O)N1C[C@@H]2C[C@H]1C(=O)N[C@@H](Cc1ccc3ccccc3c1)C(=O)N[C@H](C(=O)O)Cc1ccc(cc1)OCc1cn(nn1)[C@H]1C[C@@H](C(=O)N[C@@H](Cc3ccc4ccccc4c3)C(=O)N[C@H](C(=O)NS(C)(=O)=O)Cc3ccc(cc3)OCCCCO2)N(C(=O)[C@@H](NC(=O)[C@H](C)NC)C(C)(C)C)C1)C(C)(C)C` [Example 124], in that order: 19.4 nM and 13.6 nM.
`CN[C@@H](C)C(=O)N[C@H](C(=O)N1CC[C@@H]2OC/C=C/COc3ccc(cc3)C[C@@H](C(=O)O)NC(=O)[C@H](Cc3ccc4ccccc4c3)NC(=O)[C@@H]3[C@H](CCN3C(=O)[C@@H](NC(=O)[C@H](C)NC)C(C)(C)C)OCc3cn(nn3)[C@H](C(=O)NS(C)(=O)=O)CCCNC(=O)[C@H](Cc3ccc4ccccc4c3)NC(=O)[C@H]21)C(C)(C)C` [Example 18]: the IC50 against His-BIR3 (241-356, XIAP) turned out to be 5.8 nM; in assay [1], 1.8 nM.
For `CN[C@@H](C)C(=O)N[C@H](C(=O)N1C[C@@H]2C[C@H]1C(=O)N[C@@H](Cc1ccc3ccccc3c1)C(=O)N[C@H](C(=O)O)Cc1ccc(cc1)C(=O)N[C@H]1C[C@@H](C(=O)N[C@@H](Cc3ccc4ccccc4c3)C(=O)N[C@H](C(=O)O)Cc3ccc(cc3)OC/C=C/CO2)N(C(=O)[C@@H](NC(=O)[C@H](C)NC)C(C)(C)C)C1)C(C)C` [Example 68], in that order: 15.5 nM and 2.7 nM.
Take `CNC(C)C(=O)NC(C(=O)N1CC2CC1C(=O)NC(Cc1ccc3ccccc3c1)C(=O)NC(C(=O)O)Cc1ccc(cc1)OCCCCC1CC(C(=O)NC(Cc3ccc4ccccc4c3)C(=O)NC(C(=O)NS(=O)(=O)C(C)C)Cc3ccc(cc3)OCc3cn2nn3)N(C(=O)C(NC(=O)C(C)NC)C(C)(C)C)C1)C(C)(C)C` (centres unmarked) [Example 10]: the IC50 amounted to 6.6 nM at His-BIR3 (241-356, XIAP) and 3.1 nM in assay [1].
`CN[C@@H](C)C(=O)N[C@H](C(=O)N1C[C@@H]2C[C@H]1C(=O)N[C@@H](Cc1ccc3ccccc3c1)C(=O)N[C@H](C(=O)O)Cc1ccc(cc1)OC/C=C/CO[C@H]1C[C@@H](C(=O)N[C@@H](Cc3ccc4ccccc4c3)C(=O)N[C@H](C(=O)NS(=O)(=O)C3CC3)Cc3ccc(cc3)OCc3cn2nn3)N(C(=O)[C@H](NC(=O)[C@H](C)NC)[C@@H](C)O)C1)C(C)(C)C` [Example 111]: the IC50 was found to be 34.1 nM at His-BIR3 (241-356, XIAP) and 2.6 nM in assay [1].
For `CN[C@@H](C)C(=O)N[C@H](C(=O)N1C[C@@H]2C[C@H]1C(=O)N[C@@H](Cc1ccc3ccccc3c1)C(=O)N[C@H](C(=O)O)Cc1ccc(cc1)C(=O)N[C@H]1C[C@@H](C(=O)N[C@@H](Cc3ccc4ccccc4c3)C(=O)N[C@H](C(=O)O)Cc3ccc(cc3)C(=O)N2)N(C(=O)[C@@H](NC(=O)[C@H](C)NC)C(C)(C)C)C1)C(C)(C)C` [Example 85], the IC50 came to 16.8 nM on His-BIR3 (241-356, XIAP) and 2.5 nM in assay [1].
For the compound `CN[C@@H](C)C(=O)N[C@H](C(=O)N1C[C@@H]2C[C@H]1C(=O)N[C@@H](Cc1ccc3ccccc3c1)C(=O)N[C@H](C(=O)O)Cc1ccc(cc1)OC/C=C/CO[C@H]1C[C@@H](C(=O)N[C@@H](c3ccccc3)C(=O)N[C@H](C(=O)O)Cc3ccc(cc3)C(=O)N2)N(C(=O)[C@@H](NC(=O)[C@H](C)NC)C(C)(C)C)C1)C(C)(C)C` [Example 51], the IC50 against His-BIR3 (241-356, XIAP) turned out to be 61 nM; in assay [1], 4.8 nM.
Consider `CN[C@@H](C)C(=O)N[C@H](C(=O)N1CC[C@@H]2OC/C=C/CC[C@@H](C(=O)O)NC(=O)[C@H](Cc3ccc4ccccc4c3)NC(=O)[C@@H]3[C@H](CCN3C(=O)[C@@H](NC(=O)[C@H](C)NC)C(C)(C)C)OCc3cn(nn3)[C@H](C(=O)NS(C)(=O)=O)CCCNC(=O)[C@H](Cc3ccc4ccccc4c3)NC(=O)[C@H]21)C(C)(C)C` [Example 19], for which the IC50 on His-BIR3 (241-356, XIAP) was 35.3 nM; in assay [1], 16.8 nM.
With `CN[C@@H](C)C(=O)N[C@H](C(=O)N1CC[C@H]2OCc3cn(nn3)-c3ccc(cc3)C[C@@H](C(=O)O)NC(=O)[C@H](Cc3ccc4ccccc4c3)NC(=O)[C@@H]3C[C@@H](CN3C(=O)[C@@H](NC(=O)[C@H](C)NC)C(C)(C)C)OC/C=C/COc3ccc(cc3)C[C@@H](C(=O)O)NC(=O)[C@H](Cc3ccc4ccccc4c3)NC(=O)[C@H]21)C(C)(C)C` [Example 12], the IC50 against His-BIR3 (241-356, XIAP) is 1.2 nM; in assay [1] it was 1.2 nM.
As for `CN[C@@H](C)C(=O)N[C@H](C(=O)N[C@H]1C/C=C/CC[C@@H](C(=O)O)NC(=O)[C@H](Cc2ccc3ccccc3c2)NC(=O)[C@@H]2CN(CCN2C(=O)[C@@H](NC(=O)[C@H](C)NC)C(C)(C)C)C(=O)CNC(=O)CC[C@@H](C(=O)O)NC(=O)[C@H](Cc2ccc3ccccc3c2)NC1=O)C(C)(C)C` [Example 77], the IC50 worked out at 206 nM against His-BIR3 (241-356, XIAP) and 12.1 nM in assay [1].
With `CN[C@@H](C)C(=O)N[C@H](C(=O)N[C@H]1C/C=C/CC[C@@H](C(=O)O)NC(=O)[C@H](Cc2ccc3ccccc3c2)NC(=O)[C@@H]2[C@@H](CCN2C(=O)[C@@H](NC(=O)[C@H](C)NC)C(C)(C)C)OCc2cn(nn2)CC[C@@H](C(=O)OC)NC(=O)[C@H](Cc2ccc3ccccc3c2)NC1=O)C(C)(C)C` [Example 20], the IC50 against His-BIR3 (241-356, XIAP) was found to be 4.8 nM; in assay [1], 7.3 nM.
On to `CN[C@@H](C)C(=O)N[C@H](C(=O)N[C@H]1C/C=C/CC[C@@H](C(=O)O)NC(=O)[C@H](Cc2ccccc2)NC(=O)[C@@H]2CN(CCNC(=O)CC[C@@H](C(=O)O)NC(=O)[C@H](Cc3ccccc3)NC1=O)CCN2C(=O)[C@@H](NC(=O)[C@H](C)NC)C(C)C)C(C)C` [Example 81], for which the IC50 is 26 nM on His-BIR3 (241-356, XIAP) and 1.1 nM in assay [1].
In the same order, the values of `CN[C@@H](C)C(=O)N[C@H](C(=O)N[C@H]1C/C=C\CC[C@@H](C(=O)O)NC(=O)[C@H](Cc2ccc3ccccc3c2)NC(=O)[C@@H]2CN(CCN2C(=O)[C@@H](NC(=O)[C@H](C)NC)C(C)(C)C)C(=O)CNC(=O)CC[C@@H](C(=O)O)NC(=O)[C@H](Cc2ccc3ccccc3c2)NC1=O)C(C)(C)C` [Example 76] are 293 nM and 14.6 nM.
Turning to `CN[C@@H](C)C(=O)N[C@H](C(=O)N1C[C@@H]2C[C@H]1C(=O)NC(Cc1ccc3ccccc3c1)C(=O)N[C@H](C(=O)O)CCCCOC/C=C/C[C@H]1C[C@@H](C(=O)N[C@@H](Cc3ccc4ccccc4c3)C(=O)N[C@H](C(=O)O)Cc3ccc(cc3)OCc3cn2nn3)N(C(=O)[C@@H](NC(=O)[C@H](C)NC)C(C)(C)C)C1)C(C)(C)C` (some centres unmarked) [Example 96], the IC50 at His-BIR3 (241-356, XIAP) was found to be 7.1 nM; in assay [1], 1 nM.
With `CN[C@@H](C)C(=O)NC(C(=O)N1C[C@H]2C/C=C/COc3ccc(cc3)C[C@@H](c3n[nH]c(=O)o3)NC(=O)C(Cc3ccc4ccccc4c3)NC(=O)[C@@H]3C[C@@H](CN3C(=O)[C@@H](NC(=O)[C@H](C)NC)C(C)(C)C)n3cc(nn3)COc3ccc(cc3)C[C@@H](C(=O)O)NC(=O)[C@H](Cc3ccc4ccccc4c3)NC(=O)[C@@H]1C2)C(C)(C)C` (some centres unmarked) [Example 91], the IC50 against His-BIR3 (241-356, XIAP) came out at 2 nM; in assay [1], 0.4 nM.

For orientation: IC50 means the concentration that inhibits the measured activity by half. Low readings indicate inhibition by little substance, high ones a need for much substance.
